Data as given in ChEMBL document CHEMBL4177524, “Discovery of hepatitis B virus capsid assembly inhibitors leading to a heteroaryldihydropyrimidine based clinical candidate (GLS4)” (Bioorg Med Chem, 2017).

Key:
[1] = Cytotoxicity in human HepG2.215 cells assessed as reduction in cell viability after 5 days by CCK8 assay; format: cell-based, HepG2 2.2.15; conditions: HepG2.2.15 cells
[2] = tested on: Hepatitis B virus; experiment: Antiviral activity against lamivudine-resistant wild type hepatitis B virus infected in human Huh7 cells assessed as reduction in intracellular DNA levels measured on day 7 by real-time PCR analysis; format: functional, organism-based; conditions: Huh-7, 168 h
[3] = tested on: Hepatitis B virus; experiment: Antiviral activity against lamivudine-resistant hepatitis B virus harboring reverse transcriptase M204I mutant infected in human Huh7 cells assessed as reduction in intracellular DNA levels measured on day 7 by real-time PCR analysis; format: functional, organism-based; conditions: Huh-7, 168 h
[4] = tested on: Hepatitis B virus; experiment: Antiviral activity against lamivudine-resistant hepatitis B virus harboring reverse transcriptase M204I/V173L double mutant infected in human Huh7 cells assessed as reduction in intracellular DNA levels measured on day 7 by real-time PCR analysis; format: functional, organism-based; conditions: Huh-7, 168 h
[5] = tested on: Hepatitis B virus; experiment: Antiviral activity against lamivudine-resistant wild type hepatitis B virus infected in human Huh7 cells assessed as reduction in secreted DNA levels measured on day 7 by real-time PCR analysis; format: functional, organism-based; conditions: Huh-7, 168 h
[6] = tested on: Hepatitis B virus; experiment: Antiviral activity against lamivudine-resistant hepatitis B virus harboring reverse transcriptase M204I mutant infected in human Huh7 cells assessed as reduction in secreted DNA levels measured on day 7 by real-time PCR analysis; format: functional, organism-based; conditions: Huh-7, 168 h
[7] = tested on: Hepatitis B virus; experiment: Antiviral activity against lamivudine-resistant hepatitis B virus harboring reverse transcriptase M204I/V173L double mutant infected in human Huh7 cells assessed as reduction in secreted DNA levels measured on day 7 by real-time PCR analysis; format: functional, organism-based; conditions: Huh-7, 168 h
[8] = tested on: Hepatitis B virus; experiment: Antiviral activity against hepatitis B virus infected in human HepG2.215 cells assessed as reduction in viral DNA replication measured on day 7 by real time PCR analysis; format: functional, organism-based; conditions: HepG2.2.15, 168 h
[9] = tested on: Hepatitis B virus; experiment: Antiviral activity against telbivudine-resistant hepatitis B virus harboring reverse transcriptase M204I mutant infected in human Huh7 cells assessed as reduction in intracellular DNA levels measured on day 7 by real-time PCR analysis; format: functional, organism-based; conditions: Huh-7, 168 h
[10] = tested on: Hepatitis B virus; experiment: Antiviral activity against telbivudine-resistant hepatitis B virus harboring reverse transcriptase L180M/M204V double mutant infected in human Huh7 cells assessed as reduction in intracellular DNA levels measured on day 7 by real-time PCR analysis; format: functional, organism-based; conditions: Huh-7, 168 h
[11] = tested on: Hepatitis B virus; experiment: Antiviral activity against telbivudine-resistant hepatitis B virus harboring reverse transcriptase M204I mutant infected in human Huh7 cells assessed as reduction in secreted DNA levels measured on day 7 by real-time PCR analysis; format: functional, organism-based; conditions: Huh-7, 168 h
[12] = tested on: Hepatitis B virus; experiment: Antiviral activity against telbivudine-resistant hepatitis B virus harboring reverse transcriptase L180M/M204V double mutant infected in human Huh7 cells assessed as reduction in secreted DNA levels measured on day 7 by real-time PCR analysis; format: functional, organism-based; conditions: Huh-7, 168 h
[13] = tested on: Hepatitis B virus; experiment: Antiviral activity against telbivudine-resistant wild type hepatitis B virus infected in human Huh7 cells assessed as reduction in secreted DNA levels measured on day 7 by real-time PCR analysis; format: functional, organism-based; conditions: Huh-7, 168 h

SMILES | CC50 at 120 h [1] [µM] | EC50 [2] [µM] | EC50 [3] [µM] | EC50 [4] [µM] | EC50 [5] [µM] | EC50 [6] [µM] | EC50 [7] [µM] | EC50 [8] [µM] | EC90 [8] [µM] | EC50 [9] [µM] | EC50 [10] [µM] | EC50 [11] [µM] | EC50 [12] [µM] | EC50 [13] [µM]
Nc1ccn([C@@H]2CS[C@H](CO)O2)c(=O)n1 [LAMIVUDINE] | 1020 | 0.237 | > 20 | > 20 | 0.055 | > 20 | > 20 | 0.1 | 2 |  |  |  |  | 
Cc1cn([C@@H]2C[C@@H](O)[C@H](CO)O2)c(=O)[nH]c1=O [TELBIVUDINE] | > 200 |  |  |  |  |  |  |  |  | > 20 | > 20 | > 20 | > 20 | 0.569
